Ten compounds from patent US20260184693A1, “INHIBITORS OF SOLUTE CARRIER FAMILY 6A MEMBER 19 (SLC6A19) AND METHODS OF USE THEREOF” (Maze Therapeutics, Inc., priority 2022, published 2026) can be followed below.

The assay addresses T1, human SLC6A19 (Homo sapiens, UniProt Q695T7).
T1 construct: expressed in transfected cells
T1 sequence (Q695T7 1-634): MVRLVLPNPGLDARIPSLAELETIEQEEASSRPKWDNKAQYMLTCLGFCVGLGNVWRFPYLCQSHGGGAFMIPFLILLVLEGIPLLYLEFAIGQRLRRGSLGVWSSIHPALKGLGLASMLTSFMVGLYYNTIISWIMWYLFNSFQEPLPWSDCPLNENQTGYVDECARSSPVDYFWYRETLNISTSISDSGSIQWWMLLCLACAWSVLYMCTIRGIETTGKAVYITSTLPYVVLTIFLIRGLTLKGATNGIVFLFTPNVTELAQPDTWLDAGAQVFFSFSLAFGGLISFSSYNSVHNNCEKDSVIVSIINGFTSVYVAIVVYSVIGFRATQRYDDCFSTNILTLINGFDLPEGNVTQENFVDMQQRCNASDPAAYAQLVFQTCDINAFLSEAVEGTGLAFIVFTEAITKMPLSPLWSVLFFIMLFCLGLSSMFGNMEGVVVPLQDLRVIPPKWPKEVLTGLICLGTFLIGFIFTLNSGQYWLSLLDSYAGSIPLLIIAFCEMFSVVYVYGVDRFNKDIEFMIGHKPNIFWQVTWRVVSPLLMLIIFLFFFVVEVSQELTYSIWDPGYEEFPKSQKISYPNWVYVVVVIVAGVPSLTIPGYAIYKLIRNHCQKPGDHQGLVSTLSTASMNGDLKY
T1 sequence (Q9HBJ8 15-222 partner): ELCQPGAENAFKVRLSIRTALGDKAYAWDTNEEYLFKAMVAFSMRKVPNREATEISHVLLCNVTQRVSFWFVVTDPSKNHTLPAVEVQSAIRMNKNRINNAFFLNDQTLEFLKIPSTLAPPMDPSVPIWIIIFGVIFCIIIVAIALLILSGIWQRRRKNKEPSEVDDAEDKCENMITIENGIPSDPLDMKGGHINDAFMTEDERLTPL
Description: Example B2: 13C6,15N-isoleucine uptake, RapidFire mass spectrometry, in CHO cells with doxycycline-inducible expression of human SLC6A19 and TMEM27. It is filed as cell-based. The following applies: read-out: SLC6A19_RapidFire Uptake Assay IC50. The essentials: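 CHO cells were induced with doxycycline to express human SLC6A19 with TMEM27, then pre-incubated 20 min at 37 °C with compounds (2-fold, 10-point, duplicate). Uptake of 13C6,15N-isoleucine (2 mM solution added) over a further 20 min was measured by RapidFire mass spectrometry, using 13C-leucine as internal standard.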
For orientation: IC50 means the concentration needed to halve the response being measured. `COCC(C)C(=O)N1CCC[C@@H](N(C)C(=O)NCc2cc3cc(Cl)ccc3[nH]2)C1` (stereo partly drawn) [Compound 82, 3-((5-chloro-1H-indol-2-yl)methyl)-1-((3R)-1-(3-methoxy-2-methylpropanoyl)piperidin-3-yl)-1-methylurea]: the IC50 was found to be 3.81 µM.
The result for `CC(C(=O)N1CCC[C@@H](N(C)C(=O)NCc2cc3cc(Cl)ccc3[nH]2)C1)C1(O)CCC1` (stereo partly drawn) [Compound 105, 3-((5-chloro-1H-indol-2-yl)methyl)-1-((3R)-1-(2-(1-hydroxycyclobutyl)propanoyl)piperidin-3-yl)-1-methylurea] reads above 27 µM.
In the case of `CC(=O)N1CCC[C@@H](N(C)C(=O)NCc2cc3cc(C)c(C#N)cc3[nH]2)C1` [Compound 174, (R)-1-(1-acetylpiperidin-3-yl)-3-((6-cyano-5-methyl-1H-indol-2-yl)methyl)-1-methylurea] it was 2.79 µM.
In the case of `CC(=O)N1CCC[C@@H](N(C)C(=O)NCc2cc3cc(C#N)ccc3[nH]2)C1` [Compound 228, (R)-1-(1-acetylpiperidin-3-yl)-3-((5-cyano-1H-indol-2-yl)methyl)-1-methylurea] it was 2.21 µM.
With `Cc1[nH]cnc1C(=O)N1CCC[C@@H](N(C)C(=O)NCc2cc3cc(Cl)ccc3[nH]2)C1` [Compound 58, (R)-3-((5-chloro-1H-indol-2-yl)methyl)-1-methyl-1-(1-(5-methyl-1H-imidazole-4-carbonyl)piperidin-3-yl)urea], the IC50 was 4.05 µM.
In the case of `CN(C(=O)NCc1cc2cc(Cl)ccc2[nH]1)[C@@H]1CCCN(C(=O)CC(C)(C)O)C1` [Compound 80, (R)-3-((5-chloro-1H-indol-2-yl)methyl)-1-(1-(3-hydroxy-3-methylbutanoyl)piperidin-3-yl)-1-methylurea] it was 5.65 µM; in that of `C[C@H](O)C(=O)N1CCC[C@@H](N(C)C(=O)NCc2cc3cc(Cl)ccc3[nH]2)C1` [Compound 183, 3-((5-chloro-1H-indol-2-yl)methyl)-1-((R)-1-((S)-2-hydroxypropanoyl)piperidin-3-yl)-1-methylurea], 0.852 µM; in that of `CN(C(=O)NCc1cc2cc(Cl)ccc2[nH]1)[C@@H]1CCCN(C(=O)c2cccc(F)c2F)C1` [Compound 42, (R)-3-((5-chloro-1H-indol-2-yl)methyl)-1-(1-(2,3-difluorobenzoyl)piperidin-3-yl)-1-methylurea], 1.24 µM.
The result for `C[C@@H](O)C(=O)N1CCC[C@@H](N(C)C(=O)NCc2cc3cc(Cl)ccc3[nH]2)C1` [Compound 186, 3-((5-chloro-1H-indol-2-yl)methyl)-1-((R)-1-((R)-2-hydroxypropanoyl)piperidin-3-yl)-1-methylurea] reads 5.6 µM; that for `CN(C(=O)NCc1cc2cc(Cl)ccc2[nH]1)[C@@H]1CCCN(C(=O)Cn2cccnc2=O)C1` [Compound 66, (R)-3-((5-chloro-1H-indol-2-yl)methyl)-1-methyl-1-(1-(2-(2-oxopyrimidin-1(2H)-yl)acetyl)piperidin-3-yl)urea], 4.24 µM.
